Test results taken from ChEMBL document CHEMBL2384925, “Structure-activity relationships for 4-anilinoquinoline derivatives as inhibitors of the DNA methyltransferase enzyme DNMT1” (2013).

Legend:
[1] = biological target: DNA (cytosine-5)-methyltransferase 1 (Homo sapiens) (UniProt P26358); test: Inhibition of DNMT1 in human HCT116 cells at 5 uM after 24 hrs by Western blot analysis relative to control; assay type: cell-based; settings: HCT-116
HCT-116 = test: Cytotoxicity against human HCT116 cells assessed as viability; assay type: functional; settings: read-out: TD50 (the source's name)

Chain of DNA (cytosine-5)-methyltransferase 1 (Homo sapiens) (P26358 whole entry): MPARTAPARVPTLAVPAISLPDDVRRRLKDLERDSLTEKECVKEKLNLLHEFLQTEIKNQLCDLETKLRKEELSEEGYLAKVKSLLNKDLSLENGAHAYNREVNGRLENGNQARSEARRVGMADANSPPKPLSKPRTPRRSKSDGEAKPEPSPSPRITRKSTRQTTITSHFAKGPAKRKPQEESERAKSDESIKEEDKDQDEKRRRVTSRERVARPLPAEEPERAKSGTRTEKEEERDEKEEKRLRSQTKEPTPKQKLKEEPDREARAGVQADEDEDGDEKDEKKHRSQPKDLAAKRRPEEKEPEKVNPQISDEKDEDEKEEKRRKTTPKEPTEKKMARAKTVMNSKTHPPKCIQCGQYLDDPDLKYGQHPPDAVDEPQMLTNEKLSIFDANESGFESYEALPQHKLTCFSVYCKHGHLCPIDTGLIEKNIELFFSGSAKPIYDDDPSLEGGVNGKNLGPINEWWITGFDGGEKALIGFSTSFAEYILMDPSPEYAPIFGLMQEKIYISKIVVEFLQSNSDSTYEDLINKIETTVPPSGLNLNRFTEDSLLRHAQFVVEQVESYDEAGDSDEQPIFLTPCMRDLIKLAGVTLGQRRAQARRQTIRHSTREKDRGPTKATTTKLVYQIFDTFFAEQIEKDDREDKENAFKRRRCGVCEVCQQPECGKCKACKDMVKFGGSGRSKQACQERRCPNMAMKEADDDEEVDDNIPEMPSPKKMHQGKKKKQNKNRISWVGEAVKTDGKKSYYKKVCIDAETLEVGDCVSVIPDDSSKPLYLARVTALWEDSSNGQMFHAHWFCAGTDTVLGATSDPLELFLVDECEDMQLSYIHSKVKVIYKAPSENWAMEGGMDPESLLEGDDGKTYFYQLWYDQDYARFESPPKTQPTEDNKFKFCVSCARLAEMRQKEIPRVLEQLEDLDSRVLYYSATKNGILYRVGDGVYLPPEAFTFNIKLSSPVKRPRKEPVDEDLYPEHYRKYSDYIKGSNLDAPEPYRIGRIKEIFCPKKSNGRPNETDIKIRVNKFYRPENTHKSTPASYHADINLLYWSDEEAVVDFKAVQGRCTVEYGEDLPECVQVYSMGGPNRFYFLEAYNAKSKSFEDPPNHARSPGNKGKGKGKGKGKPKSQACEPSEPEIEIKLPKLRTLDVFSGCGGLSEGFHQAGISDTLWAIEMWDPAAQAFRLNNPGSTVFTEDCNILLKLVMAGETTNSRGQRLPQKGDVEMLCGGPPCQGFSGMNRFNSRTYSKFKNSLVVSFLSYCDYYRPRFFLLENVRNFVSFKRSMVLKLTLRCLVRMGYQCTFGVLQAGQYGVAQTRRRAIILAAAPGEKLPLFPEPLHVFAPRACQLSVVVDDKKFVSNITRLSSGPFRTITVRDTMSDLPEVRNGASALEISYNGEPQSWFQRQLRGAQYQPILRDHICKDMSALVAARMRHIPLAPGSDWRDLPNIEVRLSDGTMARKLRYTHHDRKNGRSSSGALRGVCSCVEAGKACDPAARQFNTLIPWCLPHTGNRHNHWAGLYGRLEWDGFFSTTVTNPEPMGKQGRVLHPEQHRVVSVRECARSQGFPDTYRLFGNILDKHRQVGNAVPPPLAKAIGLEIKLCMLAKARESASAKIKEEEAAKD

inhibition [1] [%] | SMILES | CC50 (HCT-116) [µM]
45 | CN(C)c1ccc2nccc(Nc3ccc(NC(=O)c4ccc(Nc5cc[n+](C)cc5)cc4)cc3)c2c1 | 50
16 | CN(C)c1ccc2nccc(Nc3ccc(C(=O)Nc4ccc(Nc5cc[n+](C)cc5)cc4)cc3)c2c1 | 50
80 | C[n+]1ccc(Nc2cccc(C(=O)Nc3ccc(Nc4ccnc5ccccc45)cc3)c2)cc1 | 25
75 | Cc1cc(Nc2ccc(C(=O)Nc3ccc(Nc4ccnc5ccccc45)cc3)cc2)nc(N)n1 | 25
30 | C/C(=N\N=C(N)N)c1ccc(NC(=O)c2ccc(Nc3ccnc4ccc(N(C)C)cc34)cc2)cc1 | 25
0 | C/C(=N\N=C(N)N)c1cccc(NC(=O)c2ccc(Nc3ccnc4ccc(N(C)C)cc34)cc2)c1 | 25
0 | C[n+]1ccc(Nc2ccc(NC(=O)c3ccc(Nc4ccnc5ccc(N)cc45)cc3)cc2)cc1 | 50
75 | CN(C)c1ccc2nccc(Nc3ccc(NC(=O)c4cccc(Nc5cc[n+](C)cc5)c4)cc3)c2c1 | 25
18 | Cc1cc(Nc2ccc(NC(=O)c3ccc(Nc4ccnc5c(F)c(F)c(F)cc45)cc3)cc2)nc(N)n1 | 25
40 | C/C(=N\N=C(N)N)c1cccc(C(=O)Nc2ccc(Nc3ccnc4ccc(N(C)C)cc34)cc2)c1 | 25
80 | C[n+]1ccc(Nc2cccc(C(=O)Nc3ccc(Nc4ccnc5ccc(N)cc45)cc3)c2)cc1 | 25
85 | Cc1cc(Nc2cccc(C(=O)Nc3ccc(Nc4ccnc5ccccc45)cc3)c2)nc(N)n1 | 25
2 | C[n+]1ccc(Nc2cccc(NC(=O)c3ccc(Nc4ccnc5ccc(N)cc45)cc3)c2)cc1 | 12.5
30 | Cc1cc(Nc2ccc(NC(=O)c3ccc(Nc4ccnc5ccc(Cl)cc45)cc3)cc2)nc(N)n1 | 25
0 | CN(C)c1ccc2nccc(Nc3ccc(C(=O)Nc4cccc(Nc5cc[n+](C)cc5)c4)cc3)c2c1 | 25
97 | Cc1cc(Nc2ccc(NC(=O)c3ccc(Nc4ccnc5ccccc45)cc3)cc2)nc(N)n1 | 25
34 | C/C(=N\N=C(N)N)c1ccc(C(=O)Nc2ccc(Nc3ccnc4ccc(N(C)C)cc34)cc2)cc1 | 25
0 | C[n+]1ccc(Nc2ccc(C(=O)Nc3ccc(Nc4ccnc5ccc(N)cc45)cc3)cc2)cc1 | 50
43 | Cc1cc(Nc2ccc(NC(=O)c3ccc(Nc4ccnc5ccc(N(C)C)cc45)cc3)cc2)nc(N)n1 | 25
0 | C[n+]1ccc(Nc2cccc(NC(=O)c3ccc(Nc4ccnc5ccccc45)cc3)c2)cc1 | 12.5
0 | C[n+]1ccc(Nc2ccc(C(=O)Nc3ccc(Nc4ccnc5ccccc45)cc3)cc2)cc1 | 12.5
0 | C[n+]1ccc(Nc2ccc(NC(=O)c3ccc(Nc4ccnc5ccccc45)cc3)cc2)cc1 | 25
